Reference: US20080138437A1, “Antitumor Agent” (priority 2004, published 2008)
Where a name gives a salt, the structure may show the parent alone. Read-outs that look alike come from different tables or passages of the source.

What was measured:
in vivo = details: male, C57BL/6, mouse
[1] = system: 15 types of human cancer cells; assay: Cell growth inhibition test, MTT, average GI 50; format: cell-based; details: average of 15 human cancer cell types, 48 hours exposure
Experimental: Appropriate amounts of each of the human cancer cells suspended in 5% fetal bovine serum-supplemented medium were plated into a 96-well plate, and allowed to adhere to the wells in a 37° C. CO2 incubator overnight.
These cancer cells were exposed to each anticancer agent for 48 hours. Cell growth was assayed by MTT. Absorbance of the control well (C) and the test well (T) was measured at 550 nm.
The absorbance of the test well immediately after adding the drug (TO) was also measured. Using these measured values, GI 50 of each drug was calculated, and the drug concentration at that time was obtained. For comparison, a similar test was performed for each of the anticancer agents (Comparative Tests 4-1 to 4-7).

C57BL/6 male mouse = details: for deaths versus administered animals: one-time
A549 lung cancer cells = assay: Antitumor test, transplanted tumor in nude mice; format: in vivo, human; details: control, drug without hydroxyapatite adsorption
Source text: (§1) (Experimental Test 5-1 to 5-5).
(§2) Female nude mice (7 weeks old, 16 to 22 g) with a BALB/c genetic background were used for the tests. Human cancer cells used for the tests were GCIY stomach cancer cells, HCT-15 colon cancer cells, A549 lung cancer cells, and OVCAR-3 ovarian cancer cells. Human cancer cells were subcutaneously transplanted into nude mice, tumor lumps were formed, and these carcinomas were used for the tests.
(§3) Aseptically collected tumors were sliced into tumors of 3×3×3 mm, and then subcutaneously transplanted into a new nude mouse. When the tumors reached a volume of 100 to 300 mm^3, the animals were arbitrarily divided into groups of six (Day 0). […] Intravascular administration was the administration route for all.
(§4) After administration, between Days 24 to 31, the length (L) and width (W) of the tumor lump of the animal were measured twice a week, and the tumor volume (TV) was calculated according to the following formula: TV=(L×W^2)/2. Antitumor effect was determined at Day 14. The relative tumor volume (RTV) was obtained by the following formula: RTV=TV14/TV0, using values of the tumor volume at Day 0 and Day 14 (referred to as TV0 and TV14). Antitumor effect was evaluated as the tumor regression rate at Day 14 (T/C%). Herein, T/C %=100×(average RTV of the treated group)/(RTV of the control group).
(§5) As a control, each drug was tested without hydroxyapatite adsorption (Comparative Tests 5-10 to 5-14).

[2] = system: GCIY stomach cancer cells; assay: Antitumor test, transplanted tumor in nude mice; format: in vivo, human; details: control, drug without hydroxyapatite adsorption
Source text: as §1, §2, §3, §4, §5

[3] = system: HCT-15 colon cancer cells; assay: Antitumor test, transplanted tumor in nude mice; format: in vivo, human; details: control, drug without hydroxyapatite adsorption
Source text: as §1, §2, §3, §4, §5

[4] = system: OVCAR-3 ovarian cancer cells; assay: Antitumor test, transplanted tumor in nude mice; format: in vivo, human; details: control, drug without hydroxyapatite adsorption
Source text: as §1, §2, §3, §4, §5

[5] = intravascular, one-time administration, 14 days observation
[6] = 400 mg/kg oral, antitumor agent alone, 14 days observation
[7] = 600 mg/kg oral, antitumor agent alone, 14 days observation
[8] = 800 mg/kg oral, antitumor agent alone, 14 days observation
[9] = 1000 mg/kg oral, antitumor agent alone, 14 days observation
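For LD50 in this document: mice given a single dose and followed for 14 days, with deaths tallied, LD50 derived from the doses given and the resulting death counts.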
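For deaths versus administered animals in this document: mice given a single dose and followed for 14 days, with deaths tallied, LD50 derived from the doses given and the resulting death counts.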

## CS(=O)(=O)OCCCCOS(C)(=O)=O [Busulphan]
In vivo; po
  LD50 at 14 days: 40 mg/kg

## N.N.O=C([O-])C1(C(=O)[O-])CCC1.[Pt+2] [Carboplatin]
[1]
  GI50: 75.7 µM
C57BL/6 male mouse; 70 mg/kg intravascular, 14 days observation
  deaths versus administered animals: 0/6
C57BL/6 male mouse; 80 mg/kg intravascular, 14 days observation
  deaths versus administered animals: 1/7
C57BL/6 male mouse; 90 mg/kg intravascular, 14 days observation
  deaths versus administered animals: 3/6
C57BL/6 male mouse; 100 mg/kg intravascular, 14 days observation
  deaths versus administered animals: 5/8
C57BL/6 male mouse; 110 mg/kg intravascular, 14 days observation
  deaths versus administered animals: 7/8
C57BL/6 male mouse; 120 mg/kg intravascular, 14 days observation
  deaths versus administered animals: 7/7
C57BL/6 male mouse; [5]
  LD50: 93.0 mg/kg
C57BL/6 male mouse; oral, antitumor agent alone (comparison), one-time administration, 14 days observation
  LD50: 350 mg/kg

## COC(COC(N)=O)C1=C(N2CC2)C(=O)C(C)=C(N2CC2)C1=O (stereo not shown) [Carboquone]
In vivo
  LD50: 5.8 mg/kg

## N.N.[Cl][Pt][Cl] [Cisplatin]
[1]
  GI50: 7.21 µM
A549 lung cancer cells
  Regression rate of transplanted cancer (T/C %) at Day 14: 79%
[2]
  Regression rate of transplanted cancer (T/C %) at Day 14: 67%
[3]
  Regression rate of transplanted cancer (T/C %) at Day 14: 53%
[4]
  Regression rate of transplanted cancer (T/C %) at Day 14: 67%
C57BL/6 male mouse; 5.0 mg/kg intravascular, 14 days observation
  deaths versus administered animals: 1/8
C57BL/6 male mouse; 7.5 mg/kg intravascular, 14 days observation
  deaths versus administered animals: 2/7
C57BL/6 male mouse; 10 mg/kg intravascular, 14 days observation
  deaths versus administered animals: 5/8
C57BL/6 male mouse; 12.5 mg/kg intravascular, 14 days observation
  deaths versus administered animals: 6/8
C57BL/6 male mouse; 15 mg/kg intravascular, 14 days observation
  deaths versus administered animals: 5/6
C57BL/6 male mouse; 17.5 mg/kg intravascular, 14 days observation
  deaths versus administered animals: 6/6

## O=P1(N(CCCl)CCCl)NCCCO1 (stereo not shown) [Cyclophosphamide]
A549 lung cancer cells
  Regression rate of transplanted cancer (T/C %) at Day 14: 86%
[2]
  Regression rate of transplanted cancer (T/C %) at Day 14: 78%
[3]
  Regression rate of transplanted cancer (T/C %) at Day 14: 52%
[4]
  Regression rate of transplanted cancer (T/C %) at Day 14: 71%
In vivo
  LD50: 140 mg/kg

## CCCCCCCCCCCCCCCCCCOP(=O)([O-])OC[C@H]1O[C@@H](n2ccc(N)nc2=O)[C@@H](O)[C@@H]1O.[Na+] [Cytarabine ocfosfate]
C57BL/6 male mouse; 250 mg/kg oral, antitumor agent alone, 14 days observation
  deaths versus administered animals: 0/5
C57BL/6 male mouse; 300 mg/kg oral, antitumor agent alone, 14 days observation
  deaths versus administered animals: 1/5
C57BL/6 male mouse; [6]
  deaths versus administered animals: 2/5
C57BL/6 male mouse; 500 mg/kg oral, antitumor agent alone, 14 days observation
  deaths versus administered animals: 2/5
C57BL/6 male mouse; [7]
  deaths versus administered animals: 3/5
C57BL/6 male mouse; 700 mg/kg oral, antitumor agent alone, 14 days observation
  deaths versus administered animals: 3/5
C57BL/6 male mouse; [8]
  deaths versus administered animals: 4/5
C57BL/6 male mouse; [9]
  deaths versus administered animals: 5/5
C57BL/6 male mouse; mouse, in vivo, po
  LD50: 524 mg/kg

## CN(C)/N=N/c1[nH]cnc1C(N)=O [Dacarbazine]
In vivo
  LD50: 452 mg/kg

## C[C@H]1O[C@@H](n2cc(F)c(=O)[nH]c2=O)[C@H](O)[C@@H]1O [Doxifluridine]
In vivo; po
  LD50: 1200 mg/kg

## C[C@]12CC[C@@H]3c4ccc(OC(=O)N(CCCl)CCCl)cc4CC[C@H]3[C@@H]1CC[C@@H]2OP(=O)(O)O [Estramustine sodium phosphate]
In vivo; po
  LD50: 380 mg/kg

## CC(C)C(=O)Nc1ccc([N+](=O)[O-])c(C(F)(F)F)c1 [Flutamide]
In vivo; po
  LD50: 772 mg/kg

## CC(C)C[C@H](NC(=O)[C@@H](COC(C)(C)C)NC(=O)[C@H](Cc1ccc(O)cc1)NC(=O)[C@H](CO)NC(=O)[C@H](Cc1c[nH]c2ccccc12)NC(=O)[C@H](Cc1cnc[nH]1)NC(=O)[C@@H]1CCC(=O)N1)C(=O)N[C@@H](CCCNC(=N)N)C(=O)N1CCC[C@H]1C(=O)NNC(N)=O [Goserelin acetate]
In vivo; sc
  LD50: 36 mg/kg

## NC(=O)NO [Hydroxycarbamide]
In vivo; po
  LD50: 2350 mg/kg

## O=P1(NCCCl)OCCCN1CCCl (stereo not shown) [Ifosfamide]
In vivo
  LD50: 325 mg/kg
In vivo; po
  LD50: 996 mg/kg

## N[C@@H](Cc1ccc(N(CCCl)CCCl)cc1)C(=O)O [Melphalan]
In vivo
  LD50: 21 mg/kg

## Sc1ncnc2nc[nH]c12 [Mercaptopurine]
In vivo; po
  LD50: 1090 mg/kg

## CN(Cc1cnc2nc(N)nc(N)c2n1)c1ccc(C(=O)N[C@@H](CCC(=O)O)C(=O)O)cc1 [Methotrexate]
In vivo; ip
  LD50: 74 mg/kg

## CO[C@@]12[C@H](COC(N)=O)C3=C(C(=O)C(C)=C(N)C3=O)N1C[C@@H]1N[C@@H]12 [Mitomycin C]
[1]
  GI50: 1.43 µM

## CC(=O)O[C@H]1C(=O)[C@@]2(C)[C@H]([C@H](OC(=O)c3ccccc3)[C@]3(O)C[C@H](OC(=O)[C@H](O)[C@@H](NC(=O)c4ccccc4)c4ccccc4)C(C)=C1C3(C)C)[C@]1(OC(C)=O)CO[C@@H]1C[C@@H]2O [Paclitaxel]
In vivo
  LD50: 12 mg/kg

## CC(C)COC(=O)OCN1C(=O)CN(CCN2CC(=O)N(COC(=O)OCC(C)C)C(=O)C2)CC1=O [Sobuzoxane]
C57BL/6 male mouse; 200 mg/kg oral, antitumor agent alone, 14 days observation
  deaths versus administered animals: 0/5
C57BL/6 male mouse; [6]
  deaths versus administered animals: 1/5
C57BL/6 male mouse; [7]
  deaths versus administered animals: 1/6
C57BL/6 male mouse; [8]
  deaths versus administered animals: 2/5
C57BL/6 male mouse; [9]
  deaths versus administered animals: 3/5
C57BL/6 male mouse; 1200 mg/kg oral, antitumor agent alone, 14 days observation
  deaths versus administered animals: 4/5
C57BL/6 male mouse; 1400 mg/kg oral, antitumor agent alone, 14 days observation
  deaths versus administered animals: 6/6

## O=c1[nH]c(=O)n(C2CCCO2)cc1F (stereo not shown) [Tegafur]
In vivo; ip
  LD50: 750 mg/kg

## S=P(N1CC1)(N1CC1)N1CC1 [Thiotepa]
In vivo
  LD50: 16.1 mg/kg

## CN(C)CCOc1ccc(/C(=C(/CCCl)c2ccccc2)c2ccccc2)cc1 [Toremifene citrate]
In vivo; po
  LD50: 360 mg/kg

## CC1=C(/C=C/C(C)=C/C=C/C(C)=C/C(=O)O)C(C)(C)CCC1 [Tretinoin]
In vivo; po
  LD50: 549 mg/kg

## CC[C@]1(O)C[C@@H]2CN(CCc3c([nH]c4ccccc34)[C@@](C(=O)OC)(c3cc4c(cc3OC)N(C)[C@H]3[C@@](O)(C(=O)OC)[C@H](OC(C)=O)[C@]5(CC)C=CCN6CC[C@]43[C@@H]65)C2)C1 [Vinblastine sulfate]
In vivo
  LD50: 5.6 mg/kg
In vivo; po
  LD50: 427 mg/kg

## CCC1=C[C@@H]2CN(C1)Cc1c([nH]c3ccccc13)[C@@](C(=O)OC)(c1cc3c(cc1OC)N(C)[C@H]1[C@@](O)(C(=O)OC)[C@H](OC(C)=O)[C@]4(CC)C=CCN5CC[C@]31[C@@H]54)C2 [Vinorelbine tartrate]
In vivo
  LD50: 2.3 mg/kg

## CCC1=C[C@@H]2CN(C1)Cc1c([nH]c3ccccc13)[C@@](C(=O)OC)(c1cc3c(cc1OC)N(C)[C@H]1[C@@](O)(C(=O)OC)[C@H](OC(C)=O)[C@]4(CC)C=CCN5CC[C@]31[C@@H]54)C2 [Vinorelbine]
In vivo; ip
  LD50: 29 mg/kg

## Bleomycin hydrochloride
C57BL/6 male mouse; 200 mg/kg intravascular, 14 days observation
  deaths versus administered animals: 0/5
C57BL/6 male mouse; 250 mg/kg intravascular, 14 days observation
  deaths versus administered animals: 1/6
C57BL/6 male mouse; 300 mg/kg intravascular, 14 days observation
  deaths versus administered animals: 3/7
C57BL/6 male mouse; 350 mg/kg intravascular, 14 days observation
  deaths versus administered animals: 4/6
C57BL/6 male mouse; 400 mg/kg intravascular, 14 days observation
  deaths versus administered animals: 4/5
C57BL/6 male mouse; 500 mg/kg intravascular, 14 days observation
  deaths versus administered animals: 5/6
C57BL/6 male mouse; 600 mg/kg intravascular, 14 days observation
  deaths versus administered animals: 6/6
C57BL/6 male mouse; [5]
  LD50: 322.7 mg/kg

B1: Neocarzinostatin (protein, UniProt P0A3R9 35-147, looked up)
Neocarzinostatin: AAPTATVTPSSGLSDGTVVKVAGAGLQAGTAYDVGQCAWVDTGVLACNPADFSSVTADANGSASTSLTVRRSFEGFLFDGTRWGTVDCTTAACQVGLSDAAGNGPEGVAISFN
modifications: enediyne chromophore
C57BL/6 male mouse; intraperitoneal, one-time administration, 14 days observation
  LD50: 1050 mg/kg
